Test results taken from patent US10842806B2, “Methods for treating ocular inflammatory disorders” (Massachusetts Eye and Ear Infirmary, priority 2011, dated 2020).

Columns and labels:
ICAM-1 = ICAM-1 ELISA in aqueous humor, retina and serum of EIU rats; format: in vivo, Lewis rats; conditions: LPS + AICAR
Description: (§1) Male Lewis rats ranging from 6-8 weeks old (Charles River, Wilmington, Mass.) were used for these studies. To study the effects of AICAR pretreatment, AICAR and PBS (for placebo treatment) were delivered via intraperitoneal injection of AICAR (50 mg/kg or 100 mg/kg body weight; Sigma) diluted in 150 μl PBS or equal volume of PBS at 6 hours before and at the same time as LPS injection. Four experimental groups of rats were compared: (1) Normal: no treatment (2) AICAR: normal rats treated with AICAR 6 hours before examination; (3) LPS: EIU rats treated with PBS; (4) LPS+AICAR: EIU rats treated with AICAR. Two additional groups of rats were used to study the effects of AICAR (50 mg/kg) given either at the same time as LPS injection or at 6 hours after LPS injection. Under deep anesthesia, experimental rats were sacrificed and the retinas were carefully removed 24 hours after LPS injection, placed into 200 μl of lysis buffer and then sonicated. The lysate was centrifuged at 13,000 rpm for 10 minutes at 4° C. and supernatant was isolated. Three hours after LPS injection, blood samples were collected from the heart and subsequently centrifuged at 3000 rpm for 30 minutes at 4° C., and serum samples were separated. Cytokine and chemokine levels in the serum, aqueous humor, and retina were assessed using the rat CCL2/MCP-1 kit (Invitrogen, Camarillo, Calif.), the rat TNF-α kit (R&D system, Minneapolis, Minn.) and the rat ICAM-1 kit (R&D systems) by ELISA.

AMPKα1 KO BMDCs = test: LPS-stimulated AMPKα1 KO BMDC maturation and cytokine production; format: cell-based, mice; conditions: after LPS stimulation with AICAR
Description: BMDCs were generated as previously described (Wang et al. (2005) IMMUNOL. LETT. 98:123-130). Briefly, bone marrow was flushed from the femurs and tibias of naive mice (6 to 8-week-old WT or AMPKα1 KO mice). The red blood cells were lysed using Red Blood Cell Lysing Buffer (Sigma). Approximately 2×10^6 cells were cultured in complete medium (RPMI 1640 medium containing 10% FBS, […], 10 mM HEPES [pH 7.4], 2 mM glutamine, 100 U/ml penicillin, and […]) including 10 ng/ml GM-CSF (Pepro Tech, London, England). Fresh media was added to the cells on day 4 of culture, and nonadherent cells and loosely adherent cells were collected as immature DCs on day 7. Immature DCs were stimulated with 100 ng/ml LPS (Salmonella typhimurium; Sigma) for 24 hours to obtain mature DCs. In some experiments, AICAR was added to the culture. […] After LPS stimulation for 24 hours, supernatant of the BMDC culture was collected and IL-6, TNF-α and IL12/23 p40 concentrations were measured (R&D system). […] In these experiments, AMPKα1 KO mice were provided as previously described (Jorgensen et al. (2004) J. BIOL. CHEM. 279:1070-1079). Since BMDCs expressed only AMPKα1, BMDCs were extracted from AMPK KO mouse and used to determine the role of AMPK in the anti-inflammatory effects of AICAR. As shown in FIGS. 14A and 14B, AICAR suppressed the maturation of AMPKα1 KO BMDCs.

[1] = tested on: CD4+CD25+Foxp3+ Treg population; test: Treg population in LN cells of EAU mice (flow cytometry); format: in vivo, C57BL/6 (WT) mice; conditions: control vs AICAR-treated mice; 21 days after immunization
Text: The effect of AICAR on the regulatory T (Treg) cell population in the EAU mice was also directly assessed. Specifically, LN cells from five mice were harvested at 21 days after immunization and stained with a mouse regulatory T cell staining kit #2 (eBioscience) according to manufacturer's instructions. CD4^+CD25^+Foxp3^+ Treg populations were subsequently detected by flow cytometry.

[2] = tested on: IRBP-reactive T cells (LN cells); test: LN cells from untreated EAU mice cultured with IRBP peptide in the presence of AICAR; format: cell-based
Description: To measure cell proliferation, LN cells were resuspended at 5×10^5 cells per 200 μl of medium in 96-well flat-bottom plates. Cells were incubated for 72 hours and proliferation during the last 12 hours was measured by using a bromodeoxyuridine (BrdU) cell proliferation assay kit (Millipore, Billerica, Mass.). Supernatant in the culture medium was collected at 48 hours and cytokine production in the supernatant was measured by ELISA using the Quantikine mouse IFN-γ, IL-4, IL-10 and IL-17 kits (R&D system, Minneapolis, Minn.).
To assess the effect of AICAR on already developed IRBP-specific T cells, LN cells from untreated EAU mice were cultured with IRBP peptide in the presence of AICAR (FIGS. 10A-10E). Specifically, LN cells were resuspended at 5×10^5 cells per 200 μl of medium in 96-well flat-bottom plates. Triplicate samples of cells were stimulated with or without IRBP at the indicated concentrations. AICAR was added at the indicated concentrations. Cell proliferation and cytokine production were measured as previously described in Example 10.

CCL2/MCP-1 = CCL2/MCP-1 ELISA in aqueous humor, retina and serum of EIU rats; format: in vivo, Lewis rats; conditions: LPS + AICAR
Description: as §1

TNF-α = TNF-α ELISA in aqueous humor, retina and serum of EIU rats; format: in vivo, Lewis rats; conditions: LPS + AICAR
Description: as §1, with “Three hours after LPS injection, blood samples were collected from the heart and subsequently centrifuged at 3000 rpm for 30 minutes at 4° C., and serum samples were separated.” left out

## NC(=O)c1ncn([C@@H]2O[C@H](CO)[C@@H](O)[C@H]2O)c1N [AICAR, 5-aminoimidazole-4-carboxamide-1-β-d-ribofuranoside]
ICAM-1; 3 hours after LPS, n=11, LPS 28.7 ± 8.1
  ICAM-1 in serum: 21.6 ± 5.0 ng/mL
ICAM-1; 24 h after LPS, n=12, LPS 8.7 ± 4.4
  ICAM-1 in aqueous humor: 4.4 ± 3.3 ng/mL
ICAM-1; 24 h after LPS, n=14, LPS 316.4 ± 132.3
  ICAM-1 in retina: 202.9 ± 113.4 pg/total retinal protein
AMPKα1 KO BMDCs
  CD40 expression in AMPKα1 KO BMDCs: significantly suppressed
  CD80 expression in AMPKα1 KO BMDCs: significantly suppressed
  CD86 expression in AMPKα1 KO BMDCs: significantly suppressed
  I-A^b expression in AMPKα1 KO BMDCs: significantly suppressed
  IL12/23 p40 production in AMPKα1 KO BMDCs: suppressed
  IL-6 production in AMPKα1 KO BMDCs: suppressed
  TNF-α production in AMPKα1 KO BMDCs: suppressed
[1]
  CD4+CD25+Foxp3+ Treg population: not significantly different
[2]
  IFN-γ production in vitro: suppressed
  IL-4 production in vitro: not significantly induced
  IL-10 production in vitro: suppressed
  IL-17 production in vitro: suppressed
  T cell proliferation in vitro: suppressed
CCL2/MCP-1; 3 hours after LPS, n=11, LPS 6.8 ± 0.5
  MCP-1 in serum: 0.4 ± 0.2 ng/mL
CCL2/MCP-1; 24 h after LPS, n=12, LPS 4.4 ± 3.9
  MCP-1 in aqueous humor: 0.8 ± 1.0 ng/mL
CCL2/MCP-1; 24 h after LPS, n=14, LPS 18.7 ± 11.3
  MCP-1 in retina: 8.8 ± 2.9 pg/total retinal protein
TNF-α; 3 hours after LPS, n=11, LPS 147.2 ± 337.1, p 0.475
  TNF-α in serum: 57.8 ± 143.1 pg/mL
TNF-α; 24 h after LPS, n=12, LPS 277.8 ± 123.9
  TNF-α in aqueous humor: 92.5 ± 140.5 pg/mL
